The source made the active and inactive calls.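 Rule for the calls: active = compounds giving half or more protection of infected cells from virus-caused growth loss, again on retest; inactive = the rest.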
System: CEM cells HIV-1 protection, formazan growth assay
Assay: NCI AIDS Antiviral Assay
Details: for IC50: measured here: growth of uninfected CEM cells
Procedure, shortened: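 Five concentrations of each compound were applied to infected and uninfected human CEM cells. Protection from HIV-1 was judged from growth measured with a soluble formazan assay.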

| Structure (SMILES) | EC50 | IC50 | outcome |
| --- | --- | --- | --- |
| CCOP(=O)(OCC)/C(C#N)=C/c1cn(C)cn1 | > 200 µM | > 200 µM |  |
| Cc1ccc(Sc2cc([N+](=O)[O-])cc(Sc3ccc(C)cc3)c2Sc2ccc(C)cc2)cc1 | > 3.72 µM | > 3.72 µM |  |
| C=CCSS(=O)CC=C (stereo not drawn) |  |  | inactive |
| CC1=CC2=C(C(N)=O)C(=O)OC2(C)C(c2ccccc2)C1 (stereo not drawn) | > 200 µM | > 200 µM |  |
| O=c1[nH]cc(CN2CCOCC2)c(=O)[nH]1 | > 617 µM | > 617 µM |  |
| Cc1cc(CSc2ssc(=S)c2-c2ccccc2)c(CSc2ssc(=S)c2-c2ccccc2)cc1C | > 200 µM | > 200 µM |  |
| CCOC(=O)C(/C=N/C(=S)Nc1ccc(S(=O)(=O)Nc2ccccn2)cc1)=C(/O)c1ccccc1 | > 200 µM | 135 µM |  |
| COc1cc(O)c2c(=O)c(OC)c(-c3ccc(OC)c(OC)c3)oc2c1 |  |  | inactive |
| COC1OC(C(C)O)C2OC(C)(C)OC12 (stereo not drawn) | > 200 µM | > 200 µM |  |
| CC(=O)NC(CC(C)C(C)=O)(C(=O)O)C(=O)O (stereo not drawn) | > 200 µM | > 200 µM |  |
| C/C=C(\C)C(=O)OCC12C(OC(C)=O)CC(C)C(C)(CCC3=CC(=O)OC3)[C@H]1CCCC21CO1 (stereo partly drawn) | > 75.9 µM | > 75.9 µM |  |
| CCOC(=O)c1cc2c3c(c(C(C)=O)c(OC)c2[nH]1)N(C(=O)CC)CC3 | > 200 µM | 16.2 µM |  |
| O=C1OC2CSCC2O1 (stereo not drawn) | > 1700 µM | > 1700 µM |  |
| CCCS(=N)(=O)CCC(N)C(=O)O (stereo not drawn) | > 200 µM | > 200 µM |  |
| CCOC(=O)C(=O)Nc1ccccc1C(F)(F)F | > 363 µM | > 363 µM |  |
| COC(=O)C1=C(O)C(O)=C(C(=O)OC)C1 | 407 µM | 955 µM |  |
| O=[N+]([O-])c1cccnc1S(=O)(=O)c1ccccc1 | > 490 µM | 1.1 µM |  |
| Cc1ccc(-c2n[nH]c(CC#N)n2)cc1 | > 200 µM | > 200 µM |  |

| Structure (SMILES) | EC50 | IC50 | outcome |
| --- | --- | --- | --- |
| N#CNC(N)=NCc1ccccc1 | 155 µM | 204 µM |  |
| CC(=O)Nc1ccc(N2C(=O)/C(=C\c3cccc(Oc4ccccc4)c3)SC2c2ccccc2)cc1 (stereo not drawn) | > 200 µM | 36.3 µM |  |
| CC(=O)OCC1C(=O)OCC1C(=O)N1Cc2cc3ccccc3nc2C1 (stereo not drawn) | > 20 µM | 0.331 µM |  |
| OCc1ccccc1C1CSCSC1 | > 219 µM | > 219 µM |  |
| NC(N)=NN=C(c1ccccc1)c1ccccc1 | > 200 µM | 1.02 µM |  |
| O=C(/C=C/c1ccccc1)CCN1CCN(CCC(=O)/C=C/c2ccccc2)CC1 | > 200 µM | 1.51 µM |  |
| C[N+]12CCCc3cc(CO)cc(c31)CCC2 | 112 µM | 603 µM |  |
| COC(=O)c1cc(C(=CCCCCBr)c2cc(Cl)c(OC)c(C(=O)OC)c2)cc(Cl)c1OC | 45.7 µM | 151 µM |  |
| CCOC(=O)C(OP(=O)(OCC)OCC)C(F)(F)F (stereo not drawn) | > 200 µM | > 200 µM |  |
| NC(CSS(=O)(=O)O)=NCCCCOc1ccccc1 | > 200 µM | 91.2 µM |  |
| CC(=O)Nc1nc(C#N)[nH]c1C#N | > 200 µM | > 200 µM |  |
| CCOc1ccc(NC(=O)CC2SC(N)=NC2=O)cc1 (stereo not drawn) | > 447 µM | > 447 µM |  |
| O=c1cc(O)nc2cn[nH]n12 | > 234 µM | > 234 µM |  |
| Cc1cccc(C)c1N/C(=N\Nc1c([N+](=O)[O-])cccc1[N+](=O)[O-])NC(=O)c1ccccc1C(=O)N/C(=N/Nc1c([N+](=O)[O-])cccc1[N+](=O)[O-])Nc1c(C)cccc1C | > 200 µM | 69.2 µM |  |
| Cc1nnc2n1N=C(c1ccc(O)c(O)c1O)CS2 | > 200 µM | 20.4 µM |  |
| CS(=O)(=O)CC1=Nc2nnc(CCCCCCCc3nnc4n3C(=O)C(CS(C)(=O)=O)=N4)n2C1=O | > 10 µM | > 10 µM |  |
| Cn1c(=O)[nH]c2c(c1=O)Cc1ccccc1S2(=O)=O | > 389 µM | 148 µM |  |

Source: PubChem BioAssay AID179 (DTP/NCI, 2004)
